For data set [1] the following is noted: cited from earlier work.
Another data set deals with PBR (Homo sapiens, UniProt P30536). Kind of data set: PBR binding, [^3H]-PK11195.
Data set [2] concerns the target CBR (central diazepine receptor). Kind of data set: CBR binding, [^3H]-Flumazenil.
The target of data set [3] is T1, peripheral benzodiazepine receptor (PBR) (Rattus norvegicus, UniProt P16257).
T1 construct: from tissue; host or cells: rat brain (hippocampus, cerebellum) after i.v. tracer injection
Kind of data set: Ex vivo autoradiography of brain sections, rat kainic acid induced epilepsy model. It counts as in vivo. The following applies: rat kainic acid model, 30 min ex vivo autoradiography. As to the method:
Using a rat kainic acid induced epilepsy model and respective sham controls the accumulation of [^18F]-2d and [^18F]-5d was visualized ex vivo. In brief, epilepsy was induced in rats by injecting kainic acid i.p. At day eight after the start of the kainic acid treatment [^18F]-2d and [^18F]-5d were injected into the tail vein of the rats and their sham treated controls (PBS instead of kainic acid) at a dose of 25.8-35.8 MBq (approximately 1.0 μg) per rat. Thirty minutes after intravenous injection the rats were sacrificed, the brains were taken out, snap frozen and sliced transversally in a cryostat. The slices were exposed to PhosphoImager plates over night. The resulting autoradiographic signals were analyzed qualitatively and quantitatively (FIG. 2.1 A and C, 2.2 A and C). […] To determine the specificity of the [^18F]-2d and [^18F]-5d binding, kainic acid treated rats were co-injected with [^19F]-2e and [^19F]-5e, respectively.
The autoradiographic signals were quantified. The signal intensity in a hippocampal region of interest (ROI) was measured and compared to a ROI in the cerebellum, that was used as reference region.

Sequence of PBR (P30536 whole entry, species assumed): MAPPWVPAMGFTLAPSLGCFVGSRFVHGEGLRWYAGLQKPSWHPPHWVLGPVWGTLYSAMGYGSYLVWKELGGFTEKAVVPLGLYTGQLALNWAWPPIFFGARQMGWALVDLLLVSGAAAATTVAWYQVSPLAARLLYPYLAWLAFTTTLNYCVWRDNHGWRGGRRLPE

As to `CC(=O)N(Cc1ccccc1OCC[18F])c1cnccc1Oc1ccccc1` [[^18F]-FEPPA], the “Brain uptake, standard uptake value (SUV), washout” value in data set [1] (after 60 min) is given as 0.35. Moreover, in data set [1] (at 5 min), the “Brain uptake, standard uptake value (SUV)” value is 0.6.
One may read the Ki as a dissociation constant, usually derived from enzyme kinetics or from competition with a known ligand. With `COc1ccc(Oc2ncccc2N(Cc2cc(OC)ccc2OCCF)C(C)=O)cc1` [[^19F]-2e, N-[2-(2-fluoroethoxy)-5-methoxybenzyl]-N-[2-(4-methoxyphenoxy)pyridin-3-yl]acetamide], the results for the Ki (at PBR; in data set [2]) were 3.6 ± 1.3 nM and greater than 20000 nM, respectively.
Regarding `COc1ccc(OCCF)c(CN(C(C)=O)c2cccnc2Oc2cccc(C)c2C)c1` [[^19F]-5e, N-[2-(2,3-dimethylphenoxy)pyridin-3-yl]-N-[2-(2-fluoroethoxy)-5-methoxybenzyl]acetamide], in data set [3], the “Hipp/Cereb ratio (signal-to-background ratio, hippocampus/cerebellum)” value was determined as 5.6±1.8. The Ki at PBR was 2.57 ± 0.06 nM; in data set [2], greater than 20000 nM.
Turning to `CCN(CC)C(=O)Cc1c(-c2ccc(OCCF)cc2)nn2c(C)cc(C)nc12` [[^19F]-DPA-714, reference compound], the Ki on PBR is 1.46 ± 0.12 nM; in data set [2], greater than 20000 nM.
For `COc1ccc(OCCF)c(CN(C(C)=O)c2cc(F)ccc2Oc2ccccc2)c1` [[^19F]-FEDAA1106, reference compound], the inhibition constant Ki at PBR was 1.5 ± 0.15 nM; in data set [2], greater than 20000 nM.

The values are drawn from patent US20110200535A1, “DAA-PYRIDINE AS PERIPHERAL BENZODIAZEPINE RECEPTOR LIGAND FOR DIAGNOSTIC IMAGING AND PHARMACEUTICAL TREATMENT” (BAYER SCHERING PHARMA AKTIENGESELLSCHAFT, priority 2008, published 2011).
